{"source": "ChEMBL document CHEMBL1157191", "about": "“Syntheses and applications of fluorescent and biotinylated epolactaene derivatives: Epolactaene and its derivative induce disulfide formation” (Bioorg Med Chem, 2008)"}
{"system": "BALL-1", "test": "cytotoxicity against human BALL1 cells by MTT assay", "assay_type": "functional, cell-based", "units": {"IC50": "µM"}}
{"smiles": "CCN(CC)c1ccc2cc(NC(=O)OCCCCCCCCCCCC(=O)[C@]34O[C@H]3C(C)(O)NC4=O)c(=O)oc2c1", "note": "(some centres undefined)", "IC50": 1.56}
{"smiles": "CC1(O)NC(=O)[C@@]2(C(=O)CCCCCCCCCCCNC(=O)CCCC[C@@H]3SC[C@@H]4NC(=O)N[C@@H]43)O[C@@H]12", "note": "(some centres undefined)", "IC50": 48.3}
{"smiles": "C\\C=C(/C=C(C)/C=C/CC/C=C(\\C)C(=O)[C@]12O[C@H]1C(C)(O)NC2=O)C(=O)OC", "note": "(some centres undefined) [EPOLACTAENE]", "IC50": 3.82}
{"smiles": "CCCCCCCCCCCC(=O)[C@]12O[C@H]1C(C)(O)NC2=O", "note": "(some centres undefined)", "IC50": 1.65}
